Test results reported in paper PMC9270351, “Conjugates of urolithin A with NSAIDs, their stability, cytotoxicity, and anti-inflammatory potential” (Scientific Reports, 2022).

Assays:
[1] = system: THP-1 derived macrophages; experiment: MTT assay, cell viability; assay type: cell-based, human; details: tested concentration range 2–50 µM; 1 h treatment, then LPS for 3 or 24 h
Method: THP-1 human monocytic cells (DSMZ, Braunschweig, Germany) were studied between passages 4 and 19. Monocytes were differentiated into THP-1 derived macrophages according to modified, previously described protocol. THP-1 monocytes were seeded in 24-well plates at a density of 400,000 cells per well. Cells were incubated at 37 °C under humidified 5% CO2 in the culture medium containing RPMI 1640 without phenol red supplemented with 10% FBS and 2 mM glutamine. In order to differentiate THP-1 monocytes into macrophages, cells were treated with 25 ng/mL PMA followed by 48 h incubation, medium change and an additional 24 h resting. Selected UADs were added to THP-1 derived macrophages at concentrations 2–50 µM and left for 1-h resting. Next, cells were treated with 10 ng/ml LPS. […]
THP-1 monocytes were seeded in 24-well plates at a density of 400,000 cells per well and differentiated into THP-1 derived macrophages according to the method described above. […] After medium removal, crystals were dissolved in 400 µL DMSO, 200 µL of solution was transferred to 96-well plate and the absorbance of the solution was measured at λ = 570 nm with the correction to 630 nm using a microplate reader. […]

[2] = system: THP-1 monocytes; experiment: PI flow cytometric assay, cell viability; assay type: cell-based, human; details: 24-h incubation
Method: THP-1 monocytes were seeded in 24-well plates at a density of 400,000. Selected UADs (2–50 µM), control (0.25% DMSO in PBS), UA (50 µM) and parthenolide (25 µM) as a control were added to THP-1 monocytes and left for 24-h incubation at 37 °C under humidified 5% CO2 in the culture medium containing RPMI 1640 without phenol red supplemented with 10% FBS and 2 mM glutamine. After that time, cell suspensions were transferred to Eppendorf tubes, centrifuged, stained with propidium iodide (PI) and analyzed using FACS (MACSQuant® Analyze, Miltenyi Biotec, Bergisch Gladbach, Germany). The cell viability was reported as the percentage of PI(−) cells.

[3] = system: TNF-α secretion in LPS-stimulated THP-1 derived macrophages; experiment: TNF-α secretion of LPS-stimulated macrophages (ELISA); assay type: cell-based, human; details: over tested concentrations; 1 h treatment, then LPS 3 h
Method: (§1) THP-1 human monocytic cells (DSMZ, Braunschweig, Germany) were studied between passages 4 and 19. Monocytes were differentiated into THP-1 derived macrophages according to modified, previously described protocol. THP-1 monocytes were seeded in 24-well plates at a density of 400,000 cells per well. Cells were incubated at 37 °C under humidified 5% CO2 in the culture medium containing RPMI 1640 without phenol red supplemented with 10% FBS and 2 mM glutamine. In order to differentiate THP-1 monocytes into macrophages, cells were treated with 25 ng/mL PMA followed by 48 h incubation, medium change and an additional 24 h resting. Selected UADs were added to THP-1 derived macrophages at concentrations 2–50 µM and left for 1-h resting. Next, cells were treated with 10 ng/ml LPS. Successful differentiation was confirmed by the presence of distinguishing macrophage markers such as: cell adherence, changes in morphology and response to bacterial LPS stimulation and, consequently, TNF-α secretion.
(§2) After treatment with the test compounds for 1 h and subsequent stimulation with LPS for 3 h (for TNF-α secretion measurements) or 24 h (for IL-10 and IL-6 secretion measurements) supernatants were collected. The secretion of cytokines levels was measured by ELISA kits according to the manufacturer’s instruction (Human TNF-α, Human IL-10 and Human IL-6 ELISA kits, BD Biosciences, Franklin Lakes, NJ, USA). […]

[4] = system: IL-10 secretion in LPS-stimulated THP-1 derived macrophages; experiment: IL-10 secretion of LPS-stimulated macrophages (ELISA); assay type: cell-based, human; details: over tested concentrations; 1 h treatment, then LPS 24 h
Method: as §1, §2

[5] = system: IL-6 secretion in LPS-stimulated THP-1 derived macrophages; experiment: IL-6 secretion of LPS-stimulated macrophages (ELISA); assay type: cell-based, human; details: 1 h treatment, then LPS 24 h
Method: as §1, §2

Q: What does the source list for `O=c1oc2cc(O)ccc2c2ccc(O)cc12` [UA, 3,8-dihydroxy-6H-benzo[c]chromen-6-one]?
A: Cell viability / cytotoxic effect (MTT) [1]: no cytotoxic effect was observed; Cell viability (PI-stained cells, flow cytometry) ([2]; 50 µM): Slight, yet statistically significant decline in monocytes viability; Effect on TNF-α secretion [3]: inhibitory effect on TNF-α secretion in a dose-dependent manner; Effect on IL-10 secretion [4]: did not significantly affect IL-10 secretion; Effect on IL-6 secretion ([5]; 50 µM): inhibited secretion of IL-6

Q: For `COc1ccc2c(c1)c(=O)oc1cc(OC(=O)C(C)c3ccc(CC(C)C)cc3)ccc12` (stereo not shown) [Mix 7, 8-methoxy-6-oxo-6H-benzo[c]chromen-3-yl 2-(4-isobutylphenyl)propanoate], which melting point is on record?
A: 114.4 to 115.7 °C

Q: Which melting point does the source give for `COc1ccc2c(c1)c(=O)oc1cc(OC(=O)c3ccccc3OC(C)=O)ccc12` [Mix 10, 8-methoxy-6-oxo-6H-benzo[c]chromen-3-yl 2-acetoxybenzoate] here?
A: 192.6 to 193.5 °C

Q: Which melting point does the source give for `COc1ccc2c(c1)c(=O)oc1cc(OC(=O)Cc3ccccc3Nc3c(Cl)cccc3Cl)ccc12` [Mix 9, 8-methoxy-6-oxo-6H-benzo[c]chromen-3-yl 2-(2-((2,6-dichlorophenyl)amino)phenyl)acetate] here?
A: 207.3 to 208.5 °C

Q: Which “Cell viability (PI-stained cells, flow cytometry)” value ([2]; 25 µM, positive control) does the source give for `C=C1C(=O)O[C@H]2[C@H]1CC/C(C)=C/CC[C@@]1(C)O[C@@H]21` [parthenolide] here?
A: decreased THP-1 viability

Q: For `Cc1cccc(Nc2ccccc2C(=O)O)c1C` [mefenamic acid], which “Effect on TNF-α secretion” value [3] is on record?
A: stimulating effect

Q: What about the “Effect on IL-10 secretion” value [4] of the same compound?
A: did not influence IL-10 secretion

Q: And the “Effect on IL-6 secretion” value ([5]; over tested concentrations)?
A: increased IL-6 production in a dose-dependent manner

Q: For `COc1ccc2c(c1)c(=O)oc1cc(OC(=O)c3ccccc3Nc3cccc(C)c3C)ccc12` [Mix 8, 8-methoxy-6-oxo-6H-benzo[c]chromen-3-yl 2-((2,3-dimethylphenyl)amino)benzoate], which melting point is on record?
A: 186.7 to 189.2 °C
